# Results taken from patent publication US20090324515A1, “ANTIMICROBIAL FLAVOURING COMPOSITION” (priority 2006, published 2009).
# What was measured:
# [1] = tested on: Streptococcus mutans DSM 6178; test: Determination of minimum inhibitory concentration (microdilution assay); conditions: for MIC: Streptococcus mutans, DSM6178, 24 h, read-out: MIC Streptococcus mutans
# [2] = tested on: Prevotella melaninogenica; test: as above; conditions: 72 h, read-out: MIC Prevotella melaninogenica
# [3] = tested on: Fusobacterium nucleatum DSM 20482; test: as above; conditions: for MIC: Fusobacterium nucleatum, DSM20482, 72 h, read-out: MIC Fusobacterium nucleatum
# [4] = tested on: Porphyromonas gingivalis DSM 20709; test: as above; conditions: for MIC: Porphyromonas gingivalis, DSM20709, 72 h, read-out: MIC Porphyromonas gingivalis
# [5] = tested on: Mycobacterium tuberculosis subsp. tuberculosis; conditions: Amicbase; cited from earlier work
# Staphylococcus aureus = conditions: Amicbase; cited from earlier work
# Streptococcus sp. = conditions: Amicbase; cited from earlier work
# Eschericia coli = conditions: Amicbase; cited from earlier work
# Proteus mirabilis = conditions: Amicbase; cited from earlier work
# Pseudomonas aeruginosa = conditions: Amicbase; cited from earlier work
# [6] = 72 h, 37° C., anaerobic, without CO2, average of 3 MIC values
SMILES,MIC [1],MIC [3],MIC [4],also measured
"CCCCC(C)C(=O)O (centres unmarked) [2-Methylhexanoic acid, 2-methylhexanoic acid]",≤ 150 µg/mL,500 µg/mL,1300 µg/mL,MIC [2]: 1500 µg/mL
"Cc1ccc(O)cc1C [3,4-dimethylphenol]",≤ 150 µg/mL,500 µg/mL,≤ 150 µg/mL,MIC [5]: 20 ppm; MIC (Staphylococcus aureus): 2000 ppm; MIC (Streptococcus sp.): 2000 ppm; MIC (Eschericia coli): 4000 ppm; MIC (Proteus mirabilis): 4000 ppm; MIC (Pseudomonas aeruginosa): 4000 ppm; MIC [2]: 590 µg/mL
"CC(=O)C1=C(C)[C@@H]2C[C@@]3(C1)[C@H](C)CC[C@H]3C2(C)C [Acetyl cedrene, acetyl cedrene]",,,,"MIC Streptococcus mutans ([1]; 24 h, 37° C., anaerobic, with CO2, average of 3 MIC values): 250 ppm; MIC Fusobacterium nucleatum [3, 6]: 500 ppm; MIC Porphyromonas gingivalis [4, 6]: 150 or less ppm"
"CC1=CCC(CCC(C)CO)C1(C)C (centres unmarked) [Brahmanol, 2-methyl-4-(2,2,3-trimethyl-3-cyclopenten-1-yl)-1-butanol]",250 µg/mL,250 µg/mL,≤ 150 µg/mL,
"O=C/C=C/c1ccccc1 [Cinnamic aldehyde, cinnamic aldehyde]",250 µg/mL,500 µg/mL,≤ 150 µg/mL,
"O=C1CCCCCCCCCCCCCC1 [Cyclopenta-decanone, cyclopentadecanone]",1000 µg/mL,1000 µg/mL,≤ 150 µg/mL,
"COC(=O)c1c(C)cc(O)c(C)c1O [Methylatrarate, methyl-2,4-dihydroxy-3,6-dimethyl-benzoate]",1000 µg/mL,≤ 150 µg/mL,≤ 150 µg/mL,
